The values that follow come from ChEMBL document CHEMBL1153933, “Selective inhibition of Pfmrk, a Plasmodium falciparum CDK, by antimalarial 1,3-diaryl-2-propenones” (Bioorg Med Chem Lett, 2009).

pIC50: −log10 of the molar value.

What is called pIC50 is the negative decadic logarithm of the IC50, by convention in mol/L.

Experiment [1] in a line: Inhibition of His6x-tagged Plasmodium falciparum PfPK5 expressed in Escherichia coli by microtiter plate scintillation counting.
Experiment [2] deals with T1, Protein kinase Pfmrk (Plasmodium falciparum, UniProt P90584).
T1 sequence (P90584 whole entry): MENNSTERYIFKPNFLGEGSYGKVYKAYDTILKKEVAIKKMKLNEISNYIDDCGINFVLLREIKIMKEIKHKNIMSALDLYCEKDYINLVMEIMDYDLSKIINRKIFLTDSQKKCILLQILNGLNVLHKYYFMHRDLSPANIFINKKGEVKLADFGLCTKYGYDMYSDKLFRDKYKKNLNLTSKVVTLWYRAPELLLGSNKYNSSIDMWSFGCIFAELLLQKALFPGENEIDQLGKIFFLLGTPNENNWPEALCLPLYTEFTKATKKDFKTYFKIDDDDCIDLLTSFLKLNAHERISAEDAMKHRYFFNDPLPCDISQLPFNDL
In words: Inhibition of His6x-tagged Plasmodium falciparum Pfmrk expressed in Escherichia coli by microtiter plate scintillation counting.

Experiment [3] deals with Plasmodium falciparum. In words: Antimalarial activity after 24 hrs against chloroquine-resistant Plasmodium falciparum W2 by [3H]hypoxanthine uptake. Format: functional, organism-based.
For experiment [4], the system named is Plasmodium falciparum. In words: Antimalarial activity after 24 hrs against chloroquine-sensitive Plasmodium falciparum D6 by [3H]hypoxanthine uptake. Format: functional, organism-based.

Take `COc1ccc(C(=O)/C=C/c2cccc3ccccc23)c(OC)c1`: the pIC50 in experiment [1] is less than 4.00; in experiment [2], 5.89.
Turning to `O=C(/C=C/c1ccccc1)c1cccc([N+](=O)[O-])c1`, the negative-log IC50 (pIC50) in experiment [3] is less than 4.70; in experiment [1] it was less than 3.50; in experiment [4] it was less than 4.70.
With `CC(=O)Nc1ccc(C(=O)/C=C/c2ccccc2)cc1`, the pIC50 in experiment [3] was 5.00; in experiment [1] it was less than 3.52; in experiment [4] it was 4.96.
On to `COc1ccc(C(=O)/C=C/c2cccc3ccccc23)c(OC)c1OC`, for which the pIC50 in experiment [1] is less than 4.00; in experiment [2], 4.30.
Turning to `COc1ccc(C(=O)/C=C/c2ccc3ccccc3c2)c(OC)c1`, in experiment [2], the pIC50 was 4.00.
Take `COc1ccc(C(=O)/C=C/c2cccc3ccccc23)cc1`: the negative logarithm of the IC50 (pIC50) in experiment [1] and in experiment [2] was less than 4.00 in each case.
With `COc1ccc(C(=O)/C=C/c2ccc3ccccc3c2)c(OC)c1OC`, the pIC50 is less than 4.00 in experiment [1] and 4.72 in experiment [2].
As to `COc1ccc(C(=O)/C=C/c2ccncc2)cc1`, the pIC50 was 4.91 in experiment [3], 4.00 in experiment [1], 4.92 in experiment [4] and 5.09 in experiment [2].
`Cc1ccc(C(=O)/C=C/c2ccccc2)cc1`: the pIC50 in experiment [3] was 4.94; in experiment [1], less than 3.44; in experiment [4], 4.93; in experiment [2], 4.70.
As to `N#Cc1ccc(C(=O)/C=C/c2ccc(Cl)cc2)cc1`, the pIC50 is 4.98 in experiment [3], less than 3.52 in experiment [1], less than 4.74 in experiment [4] and less than 4.00 in experiment [2].
For the molecule `COc1ccc(C(=O)/C=C/c2ccncc2)c(OC)c1OC`, the pIC50 was 5.49 in experiment [3], less than 4.00 in experiment [1], 5.55 in experiment [4] and 5.05 in experiment [2].
The corresponding values for `O=C(/C=C/c1ccccn1)c1cccc([N+](=O)[O-])c1` are less than 4.71, less than 3.50, 4.96 and 4.74.
In the case of `O=C(/C=C/c1ccc([N+](=O)[O-])cc1)c1cccc([N+](=O)[O-])c1`, the pIC50 in experiment [3] is less than 4.77; in experiment [1], less than 3.57; in experiment [4] it was less than 4.77; in experiment [2], 3.57.
`C/C(=C\C(=O)c1cccc([N+](=O)[O-])c1)c1cccc([N+](=O)[O-])c1`: the pIC50 is 5.09 in experiment [3], less than 3.59 in experiment [1], 5.08 in experiment [4] and less than 3.59 in experiment [2].
Consider `CCOC(=O)/C(=C\c1ccccn1)C(=O)c1cccc([N+](=O)[O-])c1`, for which the pIC50 is 3.91 in experiment [1] and 4.21 in experiment [2].
Take `COc1ccc(C(=O)/C=C/c2ccccn2)cc1`: the pIC50 in experiment [3] is 4.98; in experiment [1] it was less than 4.00; in experiment [4] it was 5.15; in experiment [2], 4.92.
As to `COc1ccc(C(=O)/C=C/c2cccnc2)c(OC)c1OC`, the pIC50 is 5.41 in experiment [3], less than 4.00 in experiment [1], 5.49 in experiment [4] and 4.42 in experiment [2].
The corresponding values for `COc1ccc(C(=O)/C=C/c2ccccn2)c(OC)c1OC` are 5.64, less than 4.00, 5.60 and 4.47.
For the molecule `O=C(/C=C/c1ccccn1)c1ccccc1` [WR-190433], the figures for the pIC50 in experiment [1] and in experiment [2] were less than 3.42 and 4.66, respectively.
